# Experimental data reported in patent EP4553077A1 (Kinoteck Therapeutics Co., Ltd, priority 2022, dated 2024).
# Columns and labels:
# [1] = Pharmacokinetic test in rats; format: in vivo, male SD rats; settings: rat, plasma, oral gavage administration, 10 mg/kg
# Experimental: Rat pharmacokinetic experiments were performed using male SD rats, 180-220g, provided by Beijing Vital River Laboratory Animal Technology Co., Ltd. 3 rats that were fasted overnight were taken, and administered orally by gavage (10 mg/kg). Blood samples were collected before administration, as well as 5, 15, 30 min and 1, 2, 4, 6, 8, 24 h after administration; another 3 rats were taken and administered intravenously (1 mg/kg), blood samples were collected before administration, as well as 5, 15, 30 min and 1, 2, 4, 6, 8, 24 h after administration. Blood sample was centrifuged at 6800g, 2-8 °C for 6 min, and plasma was collected, and stored at -80 °C. Plasma of each time point was taken, 10 times the amount of 50% methanol acetonitrile solution containing internal standard was added, and mixed by vortex for 5 min, centrifuged at 18000 rpm at 4 °C for 10 min, and the supernatant was taken directly for LC-MS/MS analysis. The main pharmacokinetic parameters were analyzed using WinNonlin8.2 software for non compartmental model analysis. Table 3: pharmacokinetic test in rats results of test compounds
# [2] = Rat liver cells metabolic stability; format: in vitro ADME; settings: rat liver cells 0.5 × 10^6 cells/mL
# Experimental: Test compound and control drug verapamil powder were prepared into […] stock solution using DMSO, and they were diluted with 50% acetonitrile/50% water to 100 µM working solution before use.
# • 1) 49.5 mL Williams E Medium and 0.5 mL glutaMAX were mixed as incubation medium. The liver cell resuscitation solution and incubation solution were preheated in a 37 °C water bath for at least 15 min before use. • 2) A tube of liver cells stored at ultra-low temperature was taken and ensured that they remain in a low-temperature frozen state before resuscitation. The liver cells were placed quickly in a 37 °C water bath and shaken gently until all ice crystals were dispersed. • 3) The contents of the liver cells tubes were poured into a centrifuge tube containing 50 mL of resuscitation medium, and they were centrifuged at 100 g for 10 min. After centrifugation, the resuscitation medium was aspirated, and sufficient incubation medium was added to obtain a cell suspension with a cell density of approximately 1.0 × 10^6 cells/mL. • 4) AO/PI staining was used to count liver cells and determine viable cell density, the survival rate of liver cells must be greater than 75%. The liver cell suspension was diluted with incubation medium to a viable cell density of 0.5 × 10^6 cells/mL.
# • 1) 198 µL live cell suspension was transferred to a 96 well deep well plate, and the deep well plate was placed on a vortex and preheat in the incubator for 10 min. • 2) 2 µL 100 µM test compound or positive control compound was added to each well for reaction initiation, and the deep well plate was placed back on the incubator vortex. • 3) The incubation plate was placed into the incubator for incubation. 25 µL suspension was taken at 0.5, 15, 30, 60, 90, and 120 min, and 6-fold (150 µL) acetonitrile containing internal standard quencher (100 nM alprazolam, 200 nM caffeine, and 100 nM toluenesulfonylbutamide) was added to a new 96 well plate to terminate the reaction. The plate was vortexed for 5 min and centrifuged at 3220 rpm and 4 °C for 45 min to precipitate the protein. 100 µL of supernatant was transferred to the sample plate, and 100 µL pure water was added and mixed well for UPLC-MS/MS analysis. All incubation systems were conducted in a dual parallel manner.
# All data was calculated using Microsoft Excel software. Peak area was detected by extracting ion chromatogram. In vitro half-life (T1/2) and in vitro clearance rate (in µL/min/10^6 cells) of the parent drug were detected by linearly fitting of the natural logarithm of the […] percentage of the parent drug versus time. Table 6 Results of rat liver cell stability test
# CYP1A2 = molecular target: T1, CYP1A2 (Homo sapiens, UniProt P05177); assay: Cytochrome P450 inhibition in human liver microsomes
# T1 sequence (P05177 1-516): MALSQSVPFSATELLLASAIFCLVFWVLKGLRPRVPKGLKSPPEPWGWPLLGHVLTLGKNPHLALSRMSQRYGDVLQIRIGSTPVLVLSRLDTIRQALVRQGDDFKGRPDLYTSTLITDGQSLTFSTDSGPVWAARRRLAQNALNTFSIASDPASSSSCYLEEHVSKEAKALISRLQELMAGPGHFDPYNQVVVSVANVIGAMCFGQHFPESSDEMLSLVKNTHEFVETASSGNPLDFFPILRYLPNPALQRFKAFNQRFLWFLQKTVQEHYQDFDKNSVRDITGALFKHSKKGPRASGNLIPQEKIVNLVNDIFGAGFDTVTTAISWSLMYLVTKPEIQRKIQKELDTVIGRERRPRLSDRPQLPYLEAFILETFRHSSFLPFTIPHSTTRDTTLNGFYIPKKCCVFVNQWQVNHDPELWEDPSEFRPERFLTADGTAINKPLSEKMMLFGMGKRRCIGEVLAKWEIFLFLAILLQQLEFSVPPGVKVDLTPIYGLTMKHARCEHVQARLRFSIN
# Experimental: (§1) Preparation of positive control inhibitor and compound working solution: 16 µL inhibitor stock solution or compound stock solution for each CYP subtype were taken and added to 24 µL DMSO. Then, they were diluted gradually three times with diluent to obtain different concentrations of test sample/positive control inhibitor working solution (7 concentrations each except for blank)
# (§2) Preparation of test sample group working solution: The human liver microsomal working solution was divided into 96 well plates at 796 µL per well, and then 4 µL test sample working solution was added.
# (§3) Preparation of positive control group working solution: The human liver microsomal working solution was divided into 96 well plates at 199 µL per well, and then 1 µL positive control inhibitor working solution was added.
# (§4) Blank solvent working solution preparation: The human liver microsomal working solution was divided into 96 well plates at 199 µL per well, and then 1 µL DMSO was added.
# (§5) (a) 30 µL test sample/positive control inhibitor working solution or 30 µL blank solvent working solution per well were transferred into a 96 well plate, and 15 µL substrate working solution of different enzyme subtypes transferred into each well, and mixed evenly. (b) The above incubation plates and 4 x NADPH working solution were preheated at 37 °C for 5 min. (c) 15 µL preheated 4 × NADPH working solution per well was transferred into the incubation plate, and the reaction initiated, and continued to be incubated at 37 °C.
# (§6) (d) After the reaction time was reached, 180 µL termination solution was added to terminate the reaction. […] (f) After centrifugation, 80 µL supernatant was taken and added to 120 µL ultrapure water, and after it was mixed evenly, LC-MS/MS was used to analyze the metabolites of the probe substrate.
# CYP2C9 = CYP2C9 (Homo sapiens, UniProt P11712); assay: as above
# Experimental: as §1, §2, §3, §4, §5, §6
# CYP2C19 = CYP2C19 (Homo sapiens, UniProt P33261); assay: as above
# Experimental: as §1, §2, §3, §4, §5, §6
# CYP2D6 = CYP2D6 (Homo sapiens, UniProt P10635); assay: as above
# Experimental: as §1
# (§7) Preparation of liver microsomal working solution: 300 µL human liver microsomes (20.0 mg/mL) was taken and added to 29700 µL PBS and mixed well, and the concentration of the prepared human liver microsomal working solution was 0.200 mg/mL.
# (§8) Preparation of 4 x NADPH working solution: A certain weight of NADPH tetrasodium salt was weighted and dissolved to a suitable volume of PBS to obtain NADPH working solution, with a concentration of 8.00 mM.
# as §2, §3, §4
# (§9) (a) 30 µL test sample/positive control inhibitor working solution or 30 µL blank solvent working solution per well were transferred into a 96 well plate, and 15 µL substrate working solution of different enzyme subtypes transferred into each well, and mixed evenly. (b) The above incubation plates and 4 x NADPH working solution were preheated at 37 °C for 5 min. (c) 15 µL preheated 4 × NADPH working solution per well was transferred into the incubation plate, and the reaction initiated, and continued to be incubated at 37 °C. The incubation time is as follows:
# as §6
# CYP3A4 = CYP3A4 (Homo sapiens, UniProt P08684); assay: as above
# Experimental: as §1, §7, §8, §2, §3, §4, §9, §6
# hERG = hERG (Homo sapiens, UniProt Q12809); assay: Manual patch clamp, hERG channel current in HEK-293 cells
# Experimental: The test compound diluents were diluted with extracellular fluid containing 0.5% F68 in sequence to prepare working solutions of 30 µM, 10 µM, 3 µM, 1 µM and 0.3 µM, and 0.3% DMSO was ensured.
# The test compound diluents were diluted with extracellular fluid containing 0.5% F68 in sequence to prepare working solutions with concentrations of 30 µM, 10 µM, 3 µM, 1 µM and 0.3 µM, and 0.3% DMSO was ensured.
# Cells were inoculated into 6 cm cell culture dishes, with a total of 2.5 × 10^5 cells per dish (final volume: 5 mL). To maintain the electrophysiological activity of cells, the cell density must not exceed 80%.
# The voltage stimulation protocol for recording hERG currents using whole cell patch clamp was as follows: when a whole cell seal was formed, the cell membrane voltage was clamped at -80 mV. […] Data was collected repeatedly every 10 s to observe the effect of the drug on hERG tail current. The experimental data was collected by IPA amplifier (Sutter Instrument) and stored in SutterPatch (with Igor Pro) software.
# When the hERG current recorded by the whole cell was stabilized, administration began, and each drug concentration acted for about 5 min (or until the current was stabilized), and then the next concentration was detected, multiple concentrations were detected for each test compound. The cover glass covered with cells was placed in the recording bath under an inverted microscope, the blank control solution and the test compound working solution sequentially flowed through the recording bath from low concentration to high concentration using gravity perfusion to act on the cells, liquid exchange was performed using a peristaltic pump during recording. The current of each cell detected in the extracellular fluid without the compound serves as its own control group. Each concentration should be independently tested twice using at least two cells. All electrophysiological tests were performed at room temperature.
# Ba/F3-TEL-FGFR2 = Ba/F3-TEL-FGFR2 (Homo sapiens, UniProt P21802+P41212); assay: Cell viability (proliferation inhibition) of Ba/F3 cells, CellTiter Glo; settings: read-out: Ba/F3 cell FGFR2 (IC50 nM), 72 h
# Ba/F3-TEL-FGFR1 = Ba/F3-TEL-FGFR1 (Homo sapiens, UniProt P11362+P41212); assay: as above; settings: read-out: Ba/F3 cell FGFR1 (IC50 nM), 72 h
# Ba/F3-TEL-FGFR1, sequence (P11362 478-767 limits assumed, one chain of several): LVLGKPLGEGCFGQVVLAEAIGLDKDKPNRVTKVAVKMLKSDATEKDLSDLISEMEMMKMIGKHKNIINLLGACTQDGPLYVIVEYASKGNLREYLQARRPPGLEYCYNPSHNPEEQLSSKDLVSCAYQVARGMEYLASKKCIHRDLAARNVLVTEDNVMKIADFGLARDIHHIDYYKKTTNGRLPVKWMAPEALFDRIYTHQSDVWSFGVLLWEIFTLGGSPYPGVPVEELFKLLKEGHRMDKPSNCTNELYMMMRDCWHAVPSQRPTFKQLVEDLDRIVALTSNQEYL
# hERG, sequence (Q12809 whole entry): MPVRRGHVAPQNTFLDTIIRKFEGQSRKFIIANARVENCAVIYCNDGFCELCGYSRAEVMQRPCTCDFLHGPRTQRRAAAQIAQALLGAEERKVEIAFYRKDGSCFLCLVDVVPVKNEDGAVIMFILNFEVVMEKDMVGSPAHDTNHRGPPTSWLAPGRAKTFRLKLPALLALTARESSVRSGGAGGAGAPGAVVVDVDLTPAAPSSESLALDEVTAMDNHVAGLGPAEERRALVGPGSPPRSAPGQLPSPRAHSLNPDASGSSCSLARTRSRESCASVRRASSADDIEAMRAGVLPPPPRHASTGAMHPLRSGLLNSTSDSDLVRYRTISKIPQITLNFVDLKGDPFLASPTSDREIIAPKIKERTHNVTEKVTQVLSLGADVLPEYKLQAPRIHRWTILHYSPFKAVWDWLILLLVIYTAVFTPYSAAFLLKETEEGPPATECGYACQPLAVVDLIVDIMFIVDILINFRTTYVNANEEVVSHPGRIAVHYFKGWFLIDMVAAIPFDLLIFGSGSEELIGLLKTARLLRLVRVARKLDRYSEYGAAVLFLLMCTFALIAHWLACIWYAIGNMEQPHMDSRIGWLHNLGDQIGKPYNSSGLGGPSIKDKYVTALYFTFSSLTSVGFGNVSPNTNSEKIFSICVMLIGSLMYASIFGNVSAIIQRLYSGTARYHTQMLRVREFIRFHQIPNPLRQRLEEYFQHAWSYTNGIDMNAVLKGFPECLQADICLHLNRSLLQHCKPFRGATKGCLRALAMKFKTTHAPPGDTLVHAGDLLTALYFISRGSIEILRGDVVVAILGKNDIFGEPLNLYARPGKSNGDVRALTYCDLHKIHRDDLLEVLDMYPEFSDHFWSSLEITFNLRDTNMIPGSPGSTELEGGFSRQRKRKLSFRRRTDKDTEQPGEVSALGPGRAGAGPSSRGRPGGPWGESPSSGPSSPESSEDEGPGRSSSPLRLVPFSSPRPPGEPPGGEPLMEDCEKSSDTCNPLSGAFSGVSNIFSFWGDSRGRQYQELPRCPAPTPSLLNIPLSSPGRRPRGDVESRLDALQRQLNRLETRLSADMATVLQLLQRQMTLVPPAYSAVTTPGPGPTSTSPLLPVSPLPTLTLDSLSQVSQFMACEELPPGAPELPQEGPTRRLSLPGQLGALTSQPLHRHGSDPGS
# CYP2C9, sequence (P11712 whole entry): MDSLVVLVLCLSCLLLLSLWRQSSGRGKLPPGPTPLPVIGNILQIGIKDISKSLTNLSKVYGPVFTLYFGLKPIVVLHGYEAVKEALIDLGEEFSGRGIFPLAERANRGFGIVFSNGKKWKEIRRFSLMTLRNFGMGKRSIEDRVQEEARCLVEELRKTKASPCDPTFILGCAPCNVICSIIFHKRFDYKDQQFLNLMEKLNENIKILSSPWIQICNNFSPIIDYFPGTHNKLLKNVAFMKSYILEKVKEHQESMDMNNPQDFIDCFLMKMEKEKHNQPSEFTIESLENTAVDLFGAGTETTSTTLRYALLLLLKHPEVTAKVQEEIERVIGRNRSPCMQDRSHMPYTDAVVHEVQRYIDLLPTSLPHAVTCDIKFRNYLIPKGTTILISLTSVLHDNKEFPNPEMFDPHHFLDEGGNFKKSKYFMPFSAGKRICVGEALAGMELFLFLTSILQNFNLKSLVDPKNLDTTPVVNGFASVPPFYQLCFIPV
# CYP3A4, sequence (P08684 whole entry): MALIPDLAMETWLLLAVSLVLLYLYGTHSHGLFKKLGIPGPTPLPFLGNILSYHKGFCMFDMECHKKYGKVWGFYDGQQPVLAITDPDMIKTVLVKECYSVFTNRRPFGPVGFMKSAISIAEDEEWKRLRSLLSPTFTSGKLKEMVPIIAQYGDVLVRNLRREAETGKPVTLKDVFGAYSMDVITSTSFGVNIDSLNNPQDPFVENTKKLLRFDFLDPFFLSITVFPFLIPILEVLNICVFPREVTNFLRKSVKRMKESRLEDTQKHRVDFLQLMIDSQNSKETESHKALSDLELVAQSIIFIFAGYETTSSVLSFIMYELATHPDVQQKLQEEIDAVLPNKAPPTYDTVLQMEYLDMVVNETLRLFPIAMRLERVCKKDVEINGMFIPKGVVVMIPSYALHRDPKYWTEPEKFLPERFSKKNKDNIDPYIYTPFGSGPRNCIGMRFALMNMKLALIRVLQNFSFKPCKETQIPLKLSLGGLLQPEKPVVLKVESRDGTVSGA
# Ba/F3-TEL-FGFR2, sequence (P21802 481-770 limits assumed, one chain of several): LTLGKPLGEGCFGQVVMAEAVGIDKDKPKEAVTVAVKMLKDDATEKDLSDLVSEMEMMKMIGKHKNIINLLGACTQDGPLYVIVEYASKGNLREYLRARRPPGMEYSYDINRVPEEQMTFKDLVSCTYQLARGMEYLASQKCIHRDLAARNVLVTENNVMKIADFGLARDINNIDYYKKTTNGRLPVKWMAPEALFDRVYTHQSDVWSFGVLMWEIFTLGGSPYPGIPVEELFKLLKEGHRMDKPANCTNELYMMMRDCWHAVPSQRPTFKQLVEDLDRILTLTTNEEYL
# CYP2C19, sequence (P33261 whole entry): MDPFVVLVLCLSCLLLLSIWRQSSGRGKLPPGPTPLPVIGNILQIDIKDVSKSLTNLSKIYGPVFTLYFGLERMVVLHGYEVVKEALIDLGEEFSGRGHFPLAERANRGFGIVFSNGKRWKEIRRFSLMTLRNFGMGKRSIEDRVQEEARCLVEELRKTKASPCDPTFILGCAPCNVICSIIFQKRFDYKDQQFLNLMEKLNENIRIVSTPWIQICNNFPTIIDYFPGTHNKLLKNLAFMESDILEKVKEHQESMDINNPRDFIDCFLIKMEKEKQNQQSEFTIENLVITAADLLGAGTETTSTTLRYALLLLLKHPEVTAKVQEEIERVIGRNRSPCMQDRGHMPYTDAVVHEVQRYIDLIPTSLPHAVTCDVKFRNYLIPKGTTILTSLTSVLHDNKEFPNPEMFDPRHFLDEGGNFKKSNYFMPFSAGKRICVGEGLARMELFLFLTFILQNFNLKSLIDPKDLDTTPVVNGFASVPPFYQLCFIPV
# CYP2D6, sequence (P10635 whole entry): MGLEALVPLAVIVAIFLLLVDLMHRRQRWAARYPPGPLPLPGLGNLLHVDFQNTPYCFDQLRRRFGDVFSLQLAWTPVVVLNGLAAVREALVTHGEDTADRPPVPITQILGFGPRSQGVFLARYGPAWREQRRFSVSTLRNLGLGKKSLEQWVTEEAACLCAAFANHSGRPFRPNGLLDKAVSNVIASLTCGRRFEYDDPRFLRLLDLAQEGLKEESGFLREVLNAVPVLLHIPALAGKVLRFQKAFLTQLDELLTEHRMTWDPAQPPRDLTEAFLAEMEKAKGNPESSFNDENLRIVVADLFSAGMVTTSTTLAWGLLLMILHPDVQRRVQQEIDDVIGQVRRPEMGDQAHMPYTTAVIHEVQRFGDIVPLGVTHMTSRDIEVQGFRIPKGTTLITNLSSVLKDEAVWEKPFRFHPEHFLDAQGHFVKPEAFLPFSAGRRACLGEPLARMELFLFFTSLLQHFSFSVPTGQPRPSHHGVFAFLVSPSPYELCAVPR
structure (smiles),measurement,setting,value
C=C(C)C(=O)Nc1ccc(-c2c(-c3ccc(N=S4(=O)CCCC4)cc3)c3c(N)ncnc3n2C)c(F)c1 [Compound 24],AUC(0-t),[1],871 ng·h/mL
same,Cmax,[1],270 ng/mL
same,Tmax,[1],15 min
same,half-life,[1],85.8 min
same,hepatocyte CLint,"[2]; hepatocytes, read-out: in vitro CLint (µL/min/10^6 cells)",37.1 µL/min/1e6 cells
same,half-life,"[2]; hepatocytes, read-out: in vitro t1/2",37.3 min
same,Remaining percentage of compound after 60 min of incubation (%),[2]; 60 min,37.55%
same,IC50,CYP1A2,> 10 µM
same,IC50,CYP2C9,29 µM
same,IC50,CYP2C19,19.4 µM
same,IC50,CYP2D6,14.3 µM
same,IC50,CYP3A4,10.7 µM
same,IC50,hERG,> 10 µM
same,inhibition at 0.3 µM,"hERG; human, hek-293 cells",-1.24%
same,inhibition at 1 µM,"hERG; human, hek-293 cells",7.73%
same,inhibition at 3 µM,"hERG; human, hek-293 cells",10.2%
same,inhibition at 10 µM,"hERG; human, hek-293 cells",32.2%
same,inhibition at 30 µM,"hERG; human, hek-293 cells",14.2%
same,IC50,Ba/F3-TEL-FGFR2,2.1 nM
same,IC50,Ba/F3-TEL-FGFR1,1910 nM
